Source: US20250188082A1, “Use of Hypoxanthine Compound In Preparation of Drug For Treating Pulmonary Fibrosis” (Sichuan Yiasuo Pharmaceutical Technology Co., Ltd., priority 2022, published 2025)

Legend:
Assay type in all cases: in vivo, C57BL/6 mice
[1] = tested on: novel coronavirus-induced pulmonary fibrosis model (COVID-19 novel coronavirus strains); assay: Novel coronavirus-induced pulmonary fibrosis model; conditions: 120 mg/kg/d intragastric, 14 days; for Ashcroft scores: novel coronavirus + bleomycin, lung tissue HE; for IL-1β / IL-6 / NF-κB / TNF-α: serum, COVID-19 novel coronavirus + bleomycin, from two weeks after model
[2] = tested on: Streptococcus pneumoniae-induced pulmonary fibrosis model; assay: Streptococcus pneumoniae-induced pulmonary fibrosis model; conditions: Streptococcus pneumoniae + bleomycin, 120 mg/kg/d intragastric, 14 days; for Leucocyte / Lymphocyte / Neutrophil: blood, Day 15, 3 times every day, from one week after model; for Ashcroft scores: lung tissue HE staining
[3] = tested on: bleomycin-induced pulmonary fibrosis model; assay: Early pulmonary fibrosis: bleomycin-induced model, dosing from one week after modelling; conditions: early pulmonary fibrosis, 120 mg/kg/d intragastric, 14 days, from one week after model; for Leucocyte / Lymphocyte / Neutrophil: blood, Day 15, twice every day; for Ashcroft scores: lung tissue HE staining
[4] = tested on: bleomycin-induced pulmonary fibrosis model; assay: Comparison with comparative drugs: bleomycin-induced model, hydroxyproline and TGF-β; conditions: 120 mg/kg/d intragastric, twice every day, 14 days, from two weeks after model; Day 15
[5] = tested on: influenza A virus-induced pulmonary fibrosis model (FM1 strain of influenza A (H1N1) virus); assay: Influenza A virus-induced pulmonary fibrosis model; conditions: 120 mg/kg/d intragastric, 14 days; for Ashcroft scores: influenza A virus + bleomycin, lung tissue HE; for IL-1β / IL-6 / NF-κB / TNF-α: serum, influenza A (H1N1) FM1 + bleomycin, from two weeks after model
Summary of the method: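 C57BL/6 mice (22-25 g; 9/group) infected intranasally with influenza A (H1N1) FM1 strain on day 1, then given 5 mg/kg intratracheal bleomycin on day 2. From two weeks later, compounds dosed intragastrically at 120 mg/kg/d for 14 days. Endpoints: body weight, mortality, serum NF-κB, TNF-α, IL-1 and IL-6, and lung HE histology with Ashcroft score.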

[6] = tested on: influenza B virus-induced pulmonary fibrosis model (influenza B (H7N9) virus); conditions: 120 mg/kg/d intragastric, 14 days; for Ashcroft scores: influenza B virus + bleomycin, lung tissue HE; for IL-1β / NF-κB / TNF-α / IL-6: serum, from two weeks after model; for IL-1β / NF-κB / TNF-α: influenza B (H7N9) + bleomycin; for IL-6: influenza B + bleomycin

## CCCOc1ncnc2c1ncn2C(C)C [Compound 9]
[1]
  Ashcroft scores: 1.34
  IL-1β: 39.6 pg/mL
  IL-6: 69.1 pg/mL
  NF-κB: 22.9 pg/mL
  TNF-α: 68.8 pg/mL
[2]
  Leucocyte: 6.73 10^9/L
  Lymphocyte: 7.11 10^9/L
  Neutrophil: 1.89 10^9/L
  Ashcroft scores: 1.33
[3]
  Leucocyte: 4.14 10^9/L
  Lymphocyte: 5.23 10^9/L
  Neutrophil: 1.33 10^9/L
  Ashcroft scores: 1.12
[4]
  Hydroxyproline in bronchoalveolar lavage fluids: 0.73 ± 0.09 µg/mg
  Hydroxyproline in lung tissues: 1.41 ± 0.09 µg/mg
  TGF-β in bronchoalveolar lavage fluids: 4.05 ± 0.14 µg/L
  TGF-β in lung tissues: 25.65 ± 2.16 µg/L
[5]
  Ashcroft scores: 1.33
  IL-1β: 28.4 pg/mL
  IL-6: 65.8 pg/mL
  NF-κB: 27.1 pg/mL
  TNF-α: 91.1 pg/mL
[6]
  Ashcroft scores: 1.23
  IL-1β: 26.9 pg/mL
  NF-κB: 30.8 pg/mL
  TNF-α: 73.8 pg/mL
  IL-6: 66.1 pg/mL

## CCOc1ncnc2c1ncn2C(C)C [Compound 8]
[1]
  Ashcroft scores: 1.24
  IL-1β: 38.4 pg/mL
  IL-6: 68.2 pg/mL
  NF-κB: 23.4 pg/mL
  TNF-α: 66.7 pg/mL
[2]
  Leucocyte: 6.68 10^9/L
  Lymphocyte: 8.09 10^9/L
  Neutrophil: 1.94 10^9/L
  Ashcroft scores: 1.31
[3]
  Leucocyte: 4.27 10^9/L
  Lymphocyte: 5.31 10^9/L
  Neutrophil: 1.26 10^9/L
  Ashcroft scores: 1.09
[4]
  Hydroxyproline in bronchoalveolar lavage fluids: 0.72 ± 0.06 µg/mg
  Hydroxyproline in lung tissues: 1.47 ± 0.10 µg/mg
  TGF-β in bronchoalveolar lavage fluids: 4.06 ± 0.18 µg/L
  TGF-β in lung tissues: 25.17 ± 2.35 µg/L
[5]
  Ashcroft scores: 1.28
  IL-1β: 28.6 pg/mL
  IL-6: 66.0 pg/mL
  NF-κB: 26.8 pg/mL
  TNF-α: 89.9 pg/mL
[6]
  Ashcroft scores: 1.16
  IL-1β: 27.1 pg/mL
  NF-κB: 31.9 pg/mL
  TNF-α: 73.5 pg/mL
  IL-6: 66.5 pg/mL
